Test results: patent publication US20200063214A1, “METHODS OF IDENTIFYING PATIENTS LIKELY TO BENEFIT FROM TREATMENT WITH A TELOMERASE INHIBITOR” (Geron Corporation, priority 2018, published 2020)
Several values for one entry are separate records, joined by “and”; a condition that tells them apart may be missing. Identical values can stand only once. Entries after “also recorded” stand apart in the source; their conditions may differ.

Tests used:
[1] = system: intermediate-2 or high-risk myelofibrosis (MF) relapsed/refractory to JAK inhibitor; experiment: Phase 2 study: overall survival (OS); format: in vivo, human
Description: (§1) Diagnosis of primary, post-essential thrombocythemia, or post-polycythemia vera MF was required; other eligibility criteria included measurable splenomegaly (by magnetic resonance imaging [MRI]), active MF-related systemic symptoms and platelet count ≥75×10^9/L. Primary endpoints were: spleen response rate (% achieving ≥35% spleen volume reduction [SVR] by MRI at week 24); and symptom response rate (% achieving ≥50% reduction in total symptom score [TSS] per the Myelofibrosis Symptom Assessment Form (MFSAF) v2 at week 24). Key secondary endpoints included safety, overall survival (OS), treatment response, molecular response, and pharmacokinetic and pharmacodynamic relationships.

hTERT RNA expression = experiment: Pharmacodynamics: hTERT RNA level reduction from baseline, whole blood; format: in vivo, human; conditions: both arms
Procedure: (§2) Telomerase activity and hTERT was analyzed to evaluate pharmacodynamic effects for imetelstat.

telomerase activity = experiment: Pharmacodynamics: telomerase activity (TA) reduction from baseline in study subjects; format: in vivo, human; conditions: for subjects with Telomerase Activity >30% reduction from baseline / subjects with Telomerase Activity >50% reduction from baseline: both arms
Description: In other embodiments of the invention, telomerase activity and level of hTERT expression in biological samples obtained from patients can be determined to evaluate pharmacodynamic effects and/or monitor patients being treated with a telomerase inhibition. The telomerase activity can be measured using the TRAP (Telomeric Repeat Amplification Protocol) telomerase activity assay. The level of hTERT expression can be determined by measuring the level of hTERT RNA expression in the cells in the biological sample using northern blots or serial analysis of gene expression (SAGE) or other methods.
as §2

[2] = system: intermediate-2 (int-2) or high-risk myelofibrosis (MF); conditions: 33-patient pilot study, Tefferi 2015; cited from earlier work
[3] = Phase 2 study: adverse events on treatment; format: in vivo, human
Description: as §1

[4] = system: patients with essential thrombocythemia; conditions: phase 2, essential thrombocythemia; cited from earlier work
[5] = system: intermediate-2 or high-risk myelofibrosis (MF) relapsed/refractory to JAK inhibitor; experiment: Phase 2 study: symptom response (total symptom score, TSS, MFSAF v2 at week 24); format: in vivo, human; conditions: 9.4 mg/kg
Description: as §1

human telomerase = conditions: Asai 2003; Herbert 2005; cited from earlier work
[6] = system: intermediate-2 or high-risk myelofibrosis (MF) relapsed/refractory to JAK inhibitor; experiment: Phase 2 study: spleen response (spleen volume reduction, SVR, by MRI at week 24); format: in vivo, human
Description: as §1

[7] = system: various cancer cell lines and tumor xenografts in mice; conditions: cited from earlier work
[8] = 9.4 mg/kg arm, Non-TN (MUT), second clinical cutoff
[9] = 9.4 mg/kg arm, Triple Negative (TN), second clinical cutoff
[10] = 4.7 MG/KG, all subjects with baseline TL (N 40)
[11] = 4.7 MG/KG, all subjects with baseline TL (N 40), first clinical cutoff
[12] = 4.7 MG/KG, baseline TL <=Median Value
[13] = 4.7 MG/KG, baseline TL >Median Value
[14] = 9.4 MG/KG, all subjects with baseline TL (N 53)
[15] = 9.4 MG/KG, baseline TL <=Median Value
[16] = 9.4 MG/KG, baseline TL >Median Value
[17] = Spleen Response at wk 24 by IRC: No
[18] = Spleen Response at wk 24 by IRC: Yes
[19] = all with baseline TL data, N = 53
[20] = 9.4 mg/kg, all with baseline TL data, N = 53

**Q.** With “imetelstat: 13-mer oligonucleotide that targets the RNA template of human telomerase; first-in-class telomerase inhibitor (TAGGGTTAGACAA; 5' palmitoyl amidopropyl, thio-phosphoramidate, sodium salt, further chemistry not given here)” as the substance, how does the “OS trend, shorter baseline TL (<= median TL)” value ([1]; 9.4 mg/kg arm) read?
**A.** better OS trend

**Q.** And the “Median survival, months (95% CI)” value [1, 8]?
**A.** 24.6 (19.7, NE) months

**Q.** What about the “Percentage of Subjects Who Died” value [1, 8] of the same substance?
**A.** 21/41 (51.2%)

**Q.** What about the “Median survival, months (95% CI)” value ([1]; 9.4 mg/kg arm, Non-TN subjects, first clinical cutoff) of the same substance?
**A.** 23.6 months

**Q.** What about the “OS HR (Hazard Ratio) (95% CI)” value ([1]; 9.4 mg/kg arm, Non-TN vs TN, second clinical cutoff) of the same substance?
**A.** 2.60 (0.89, 7.59)

**Q.** What about the “Median survival, months (95% CI)” value ([1]; 9.4 mg/kg arm, TN subjects, first clinical cutoff) of the same substance?
**A.** not estimable

**Q.** And the “Median survival, months (95% CI)” value [1, 9]?
**A.** NE (23.2, NE)

**Q.** And the “Percentage of Subjects Who Died” value [1, 9]?
**A.** 4/16 (25.0%)

**Q.** And the “18-months survival rate % (95% CI)” value [1, 10]?
**A.** 68.2 %

**Q.** What about the “24-months survival rate % (95% CI)” value [1, 10] of the same substance?
**A.** 39.6 %

**Q.** What about the “Number of events (OS)” value [1, 11] of the same substance?
**A.** 20

**Q.** And the “Overall Survival (months) Median (95% CI)” value (“Overall Survival … (95% CI)” for short) [1, 11]?
**A.** 22.3 (18.2, NE) months

**Q.** What about the “18-months survival rate % (95% CI)” value [1, 12] of the same substance?
**A.** 76.7 %

**Q.** What about the “24-months survival rate % (95% CI)” value [1, 12] of the same substance?
**A.** 34.1 %

**Q.** What about the “Number of events (%) (OS)” value ([1]; 4.7 MG/KG, baseline TL <=Median Value, first clinical cutoff) of the same substance?
**A.** 10(25.0%)

**Q.** What about the “18-months survival rate % (95% CI)” value [1, 13] of the same substance?
**A.** 61.0 %

**Q.** What about the “24-months survival rate % (95% CI)” value [1, 13] of the same substance?
**A.** 46.6 %

**Q.** And the “Number of events (%) (OS)” value ([1]; 4.7 MG/KG, baseline TL >Median Value, first clinical cutoff)?
**A.** 10(25.0%)

**Q.** And the “Overall Survival … (95% CI)” value ([1]; 4.7 MG/KG, longer baseline TL (>Median Value), first clinical cutoff)?
**A.** 22.3 (16.6, NE) months and 22.3 months

**Q.** What about the “Overall Survival … (95% CI)” value ([1]; 4.7 MG/KG, shorter baseline TL (<=Median Value), first clinical cutoff) of the same substance?
**A.** 20.3 (17.2, NE) months and 20.3 months

**Q.** And the “18-months survival rate % (95% CI)” value [1, 14]?
**A.** 75.9 %

**Q.** And the “24-months survival rate % (95% CI)” value [1, 14]?
**A.** 54.2 %

**Q.** And the “Number of events (OS)” value ([1]; 9.4 MG/KG, all subjects with baseline TL (N 53), first clinical cutoff)?
**A.** 18

**Q.** What about the “18-months survival rate % (95% CI)” value [1, 15] of the same substance?
**A.** 81.2 %

**Q.** What about the “24-months survival rate % (95% CI)” value [1, 15] of the same substance?
**A.** 59.3 %

**Q.** And the “Number of events (%) (OS)” value ([1]; 9.4 MG/KG, baseline TL <=Median Value, first clinical cutoff)?
**A.** 8(15.1%)

**Q.** And the “18-months survival rate % (95% CI)” value [1, 16]?
**A.** 69.8 %

**Q.** What about the “24-months survival rate % (95% CI)” value [1, 16] of the same substance?
**A.** 47.6 %

**Q.** What about the “Number of events (%) (OS)” value ([1]; 9.4 MG/KG, baseline TL >Median Value, first clinical cutoff) of the same substance?
**A.** 10(18.9%)

**Q.** What about the “Overall Survival … (95% CI)” value ([1]; 9.4 MG/KG, longer baseline TL (>Median Value), first clinical cutoff) of the same substance?
**A.** 22.8 months

**Q.** What about the “Overall Survival … (95% CI)” value ([1]; 9.4 MG/KG, shorter baseline TL (<=Median Value), first clinical cutoff) of the same substance?
**A.** not estimable

**Q.** What about the “subjects with hTERT>50% reduction from baseline” value (hTERT RNA expression; TSS Response at wk 24: No) of the same substance?
**A.** 45/81 (55.6%)

**Q.** And the “subjects with hTERT>50% reduction from baseline” value (hTERT RNA expression; TSS Response at wk 24: Yes)?
**A.** 15/24 (62.5%)

**Q.** What about the “PD effect (telomerase activity and hTERT RNA reduction), 9.4 vs […]” value (telomerase activity; 9.4 mg/kg arm vs […] arm) of the same substance?
**A.** dose-dependent PD effect

**Q.** And the “subjects achieving TA >=30% decrease from baseline at any timepoint” value (telomerase activity; 4.7 MG/KG, 34 subjects with baseline)?
**A.** 14 (41.2%)

**Q.** And the “subjects achieving TA >=30% decrease from baseline at any timepoint” value (telomerase activity; 9.4 MG/KG, 45 subjects with baseline)?
**A.** 28 (62.2%)

**Q.** And the “subjects with Telomerase Activity >30% reduction from baseline” value (telomerase activity; [17])?
**A.** 41/70 (58.6%)

**Q.** And the “subjects with Telomerase Activity >50% reduction from baseline” value (telomerase activity; [17])?
**A.** 34/70 (48.6%)

**Q.** What about the “subjects with Telomerase Activity >30% reduction from baseline” value (telomerase activity; [18]) of the same substance?
**A.** 3/4 (75%)

**Q.** And the “subjects with Telomerase Activity >50% reduction from baseline” value (telomerase activity; [18])?
**A.** 2/4 (50%)

**Q.** What about the “subjects with Telomerase Activity >30% reduction from baseline” value (telomerase activity; TSS Response at wk 24: No) of the same substance?
**A.** 29/56 (51.8%)

**Q.** What about the “subjects with Telomerase Activity >50% reduction from baseline” value (telomerase activity; TSS Response at wk 24: No) of the same substance?
**A.** 24/56 (42.9%)

**Q.** What about the “subjects with Telomerase Activity >30% reduction from baseline” value (telomerase activity; TSS Response at wk 24: Yes) of the same substance?
**A.** 15/18 (83.3%)

**Q.** And the “subjects with Telomerase Activity >50% reduction from baseline” value (telomerase activity; TSS Response at wk 24: Yes)?
**A.** 12/18 (66.7%)

**Q.** And the “clinical activity and safety profile” value [2]?
**A.** Clinical activity and an acceptable safety profile

**Q.** And the “Imetelstat-related hepatic toxicities, confirmed by independent Hepatic Review Committee” value [3]?
**A.** not observed

**Q.** What about the “JAK2 V617F and CALR mutant allele burdens” value [4] of the same substance?
**A.** significant reduction

**Q.** And the platelet-lowering activity [4]?
**A.** platelet-lowering activity

**Q.** And the “subjects with TSS >= 50% decrease at week 24, No” value ([5]; Longer TL (>Median value), 24 subjects)?
**A.** 18 (75%)

**Q.** What about the “subjects with TSS >= 50% decrease at week 24, No” value ([5]; Shorter TL (<= Median value), 29 subjects) of the same substance?
**A.** 19 (65.6%)

**Q.** And the “subjects with TSS >= 50% decrease at week 24, No” value [5, 19]?
**A.** (69.8%)

**Q.** What about the “subjects with TSS >= 50% decrease at week 24, Yes” value [5, 19] of the same substance?
**A.** (30.2%)

**Q.** And the “inhibition of telomerase enzymatic activity” value (human telomerase)?
**A.** potent competitive inhibitor

**Q.** And the “responses (SVR or TSS) in patients with HMR having greater than one mutation” value ([6]; 9.4 mg/kg)?
**A.** responses were observed

**Q.** And the “rate of response (SVR or TSS), LMR or HMR with only 1 mutation compared to HMR with more than 1 mutations” value ([6]; 9.4 mg/kg arm, week 24)?
**A.** enriched

**Q.** What about the “rate of response (SVR or TSS), TN group compared to Non-TN group” value ([6]; 9.4 mg/kg arm, week 24) of the same substance?
**A.** enriched

**Q.** And the “rate of response (SVR or TSS), shorter baseline TL compared to longer TL” value ([6]; 9.4 mg/kg arm, week 24)?
**A.** enriched; also recorded: higher rate of response

**Q.** What about the “subjects with SVR >= 35% at week 24 by IRC, No” value ([6]; 9.4 mg/kg, Longer TL (>Median value), 24 subjects) of the same substance?
**A.** 23 (92.7%)

**Q.** And the “subjects with SVR >= 35% at week 24 by IRC, No” value ([6]; 9.4 mg/kg, Shorter TL (<= Median value), 29 subjects)?
**A.** 24 (82.75%)

**Q.** What about the “subjects with SVR >= 35% at Week 24 by IRC, Yes” value [6, 20] of the same substance?
**A.** (10.5%)

**Q.** What about the “subjects with SVR >= 35% at week 24 by IRC, No” value [6, 20] of the same substance?
**A.** (89.5%)

**Q.** What about the “telomerase activity and cell proliferation” value [7] of the same substance?
**A.** inhibits telomerase activity and cell proliferation
